Tests used:
[1] = tested on: BIP; assay: ER chaperone secretion assay, BIP; assay type: cell-based, human
Excerpt: (§1) Figure 1. ER retrieval signal abundance and affinity are not correlated. (a) Sequence logos for ER resident proteins with C-terminal KDEL retrieval signals and variants thereof calculated using frequency or protein abundance ([Itzhak et al., 2017]; [Itzhak et al., 2016]). (b) Combined cellular concentrations of ER resident proteins with canonical KDEL, RDEL, and HDEL retrieval sequences in HeLa cells and mouse brain. (c) Competition binding assays for [^3H]-TAEHDEL and unlabelled TAEKDEL, TAERDEL, and TAEHDEL to the KDEL receptor. IC50 values for the competing peptides were used to calculate the apparent KDwith the Cheng-Prusoff equation ([Cheng and Prusoff, 1973]). (d) Endogenous KDEL receptor redistribution was measured in COS-7 cells in the absence (-ligand) or presence of K/R/H/A/DDEL (mScarlet-xDEL^sec). TGN46 was used as a Golgi marker. Scale bar is 10 µm. (e) The mean difference for K/R/H/A/DDEL comparisons against the shared no ligand control are shown as Cummings estimation plots. The individual data points for the fraction of KDEL receptor fluorescence in the Golgi are plotted on the upper axes with sample sizes and p values. Figure 1—source data 1. Source data for the ligand-induced KDELR receptor retrieval assays in Figure 1e. Figure 1—figure supplement 1. Abundance of ER resident proteins and chaperones in human cells and mouse brain. (a) The mean concentration of ER resident chaperones with the indicated ER retrieval sequence variant is plotted in the bar graph ([Itzhak et al., 2017]; [Itzhak et al., 2016]). […] Endogenous ER chaperone secretion was measured by western blotting after challenge with different retrieval signals, and plotted as a bar graph showing mean ± SEM (n = 3). […] (a) Distribution of human KDELR1 and (b) KDELR2 was measured in COS-7 cells in the absence (-ligand) or presence of K/R/H/A/DDEL retrieval signals (K/R/H/A/DDEL^sec). […] The fraction of KDEL receptor localised to the Golgi was measured before (no ligand) and after challenge with different retrieval signals as indicated. […]

[2] = tested on: PDI; assay: ER chaperone secretion assay, PDI; assay type: cell-based, human
Excerpt: as §1

[3] = mean, HeLa S3, 24 hr, Western blot densitometry

With “ADEL [pcDNA3.1 hGHss-mScarlet-H. sapiens BiP639-654K651A (ADEL^SEC), secreted mScarlet fusion with human BiP C-terminus, ADEL signal]” the “BiP secretion after challenge with retrieval signal” value (“BiP secretion after challenge” below) [1, 3] was 8.5, the “BiP secretion after challenge” value ([1]; replicate 1) was 15.9 and the “BiP secretion after challenge” value ([1]; replicate 2) was 1.1. For the same substance, the “PDI secretion after challenge with retrieval signal” value (“PDI secretion after challenge” for short) [2, 3] was 6.6, the “PDI secretion after challenge” value ([2]; replicate 1) was 7.3 and the “PDI secretion after challenge” value ([2]; replicate 2) was 6.0.
